Counter-ions that a name gives are not always drawn.
Columns and labels:
human LSD1(172-833) = human LSD1(172-833) (Homo sapiens (Human), UniProt O60341); assay: Measurement of LSD1 inhibitory activity (time-resolved fluorescence, biotin-histone H3 mono methylated K4 peptide); format: biochemical
Protocol: When the turbidity reached 500 Klett units, the culture temperature was changed to 16° C., IPTG (Isopropyl β-D-1-thiogalactopyranoside) having a final concentration of 0.5 mM was added to induce expression, and the cells were cultured further for 14 hr. The culture medium was centrifuged at 6,000 g for 15 min, and Escherichia coil pellets were recovered.
Using Branson ultrasonic disintegrator, the suspension was disrupted by ultrasonication for 3 min, and centrifuged at 33,000 g for 60 min, and the supernatant was recovered. […] It was concentrated to 10 mL with AmiconUltra (NWCO 30K) (Millipore Japan), and purified with HiLoad 26/60 Superdex 200 pg column (GE Healthcare) equilibrated with Buffer A to give hLSD1 purified product (8.4 mg). The protein concentration of hLSD1 was measured by BCA Protein Assay Kit (Thermo Fisher Scientific K.K.) using bovine serum albumin as the standard.
(5) Measurement of LSD1 Inhibitory Activity
After reaction at room temperature for 5 min, 1 mM 2-PCPA solution was added 5 μL to terminate the reaction. A detection solution ([…] potassium fluoride, 0.1% BSA) containing europium-labeled anti-histone H3 antibody (Wako Pure Chemical Industries, Ltd.) and Streptavidin-XL665 (Cisbio) was further added by 5 μL, and the mixture was left standing for 60 min.

MAO-A enzyme = MAO-A enzyme (Homo sapiens (Human), UniProt P21397); assay: Measurement of MAO-A inhibitory activity (MAO-Glo Assay); format: biochemical
Chain of MAO-A enzyme (P21397 whole entry): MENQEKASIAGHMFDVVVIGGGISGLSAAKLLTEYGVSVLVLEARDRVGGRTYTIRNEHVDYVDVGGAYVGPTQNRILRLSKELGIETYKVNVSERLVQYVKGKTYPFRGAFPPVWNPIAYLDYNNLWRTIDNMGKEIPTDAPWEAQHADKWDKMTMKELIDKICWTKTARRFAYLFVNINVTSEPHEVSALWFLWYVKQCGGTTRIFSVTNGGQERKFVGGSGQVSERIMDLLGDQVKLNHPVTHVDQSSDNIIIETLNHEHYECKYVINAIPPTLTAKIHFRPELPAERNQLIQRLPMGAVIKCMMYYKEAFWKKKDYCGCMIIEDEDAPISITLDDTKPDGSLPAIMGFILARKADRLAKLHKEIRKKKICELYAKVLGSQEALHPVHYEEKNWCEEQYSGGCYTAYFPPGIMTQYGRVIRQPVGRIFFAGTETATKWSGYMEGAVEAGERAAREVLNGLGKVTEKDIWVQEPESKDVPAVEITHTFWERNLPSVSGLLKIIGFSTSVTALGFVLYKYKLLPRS

MAO-B enzyme = MAO-B enzyme (Homo sapiens (Human), UniProt P27338); assay: Measurement of MAO-B inhibitory activity (MAO-Glo Assay); details: read-out: MAO-B IC50 value;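 also: luminescence read-out, compound preincubated 10 min with enzyme then reacted 60 min at room temperature, inhibition relative to enzyme reaction without compound, blank lacking enzyme and compound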
Chain of MAO-B enzyme (P27338 whole entry): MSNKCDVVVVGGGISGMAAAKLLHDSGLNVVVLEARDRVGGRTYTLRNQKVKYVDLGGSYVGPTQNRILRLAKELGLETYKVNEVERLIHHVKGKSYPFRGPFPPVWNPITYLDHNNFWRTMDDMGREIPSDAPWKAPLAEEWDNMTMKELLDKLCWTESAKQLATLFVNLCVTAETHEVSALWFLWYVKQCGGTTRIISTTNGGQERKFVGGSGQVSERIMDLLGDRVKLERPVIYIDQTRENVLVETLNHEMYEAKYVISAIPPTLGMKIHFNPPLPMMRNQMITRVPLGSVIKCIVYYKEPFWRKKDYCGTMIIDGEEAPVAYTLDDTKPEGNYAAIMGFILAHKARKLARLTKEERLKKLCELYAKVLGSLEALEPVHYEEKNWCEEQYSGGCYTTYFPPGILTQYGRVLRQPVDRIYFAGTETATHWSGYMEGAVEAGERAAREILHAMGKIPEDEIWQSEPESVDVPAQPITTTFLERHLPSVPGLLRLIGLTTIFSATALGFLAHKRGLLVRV

Structure (SMILES)	IC50 (human LSD1(172-833))	IC50 (MAO-A enzyme)	IC50 (MAO-B enzyme)
O=C1COc2ccc(CN[C@@H]3C[C@H]3c3ccc(C(=O)NCc4ccccc4)cc3)cc2N1 (relative stereo) [Example 44, N-benzyl-4-(trans-2-(((3-oxo-3,4-dihydro-2H-1,4-benzoxazin-6-yl)methyl)amino)cyclopropyl)benzamide trifluoroacetate]	< 0.1 µM	1.3 µM	> 10 µM
O=C(NCc1ccccc1)c1ccc([C@@H]2C[C@H]2NCc2ccc(-c3cnccn3)cc2)cc1 (relative stereo) [Example 45, N-benzyl-4-(trans-2-((4-(pyrazin-2-yl)benzyl)amino)cyclopropyl)benzamide bis(trifluoroacetate)]	< 0.1 µM	1.7 µM	> 10 µM
O=C(NCc1ccccc1)c1ccc([C@@H]2C[C@H]2NCc2cccs2)cc1 (relative stereo) [Example 46, N-benzyl-4-(trans-2-((2-thienylmethyl)amino)cyclopropyl)benzamide trifluoroacetate]	< 0.1 µM	1.8 µM	> 10 µM
Cc1ccsc1CN[C@@H]1C[C@H]1c1ccc(C(=O)NCc2ccccc2)cc1 (relative stereo) [Example 47, N-benzyl-4-(trans-2-(((3-methyl-2-thienyl)methyl)amino)cyclopropyl)benzamide trifluoroacetate]	< 0.1 µM	5 µM	> 10 µM
Cc1ccc(CN[C@@H]2C[C@H]2c2ccc(C(=O)NCc3ccccc3)cc2)s1 (relative stereo) [Example 48, N-benzyl-4-(trans-2-(((5-methyl-2-thienyl)methyl)amino)cyclopropyl)benzamide trifluoroacetate]	< 0.1 µM	2.6 µM	> 10 µM
Cc1csc(CN[C@@H]2C[C@H]2c2ccc(C(=O)NCc3ccccc3)cc2)c1 (relative stereo) [Example 49, N-benzyl-4-(trans-2-(((4-methyl-2-thienyl)methyl)amino)cyclopropyl)benzamide trifluoroacetate]	< 0.1 µM	1.8 µM	> 10 µM
N[C@@H]1C[C@H]1c1ccc(C(=O)Nc2ccc(-c3ncccn3)cc2)cc1 (relative stereo) [Example 50, 4-(trans-2-aminocyclopropyl)-N-(4-(pyrimidin-2-yl)phenyl)benzamide dihydrochloride]	< 0.1 µM	0.2 µM	> 10 µM
Cn1cc(NC(=O)c2ccc([C@@H]3C[C@H]3N)cc2)cn1 (relative stereo) [Example 51, 4-(trans-2-aminocyclopropyl)-N-(1-methyl-1H-pyrazol-4-yl)benzamide dihydrochloride]	< 0.1 µM	0.83 µM	> 10 µM
O=C(Nc1ccc(-c2ncccn2)cc1)c1ccc([C@@H]2C[C@H]2NCC2CC2)cc1 (relative stereo) [Example 52, 4-(trans-2-((cyclopropylmethyl)amino)cyclopropyl)-N-(4-(pyrimidin-2-yl)phenyl)benzamide dihydrochloride]	< 0.1 µM	> 10 µM	> 10 µM
Cn1cc(NC(=O)c2ccc([C@@H]3C[C@H]3NCC3CC3)cc2)cn1 (relative stereo) [Example 53, 4-(trans-2-((cyclopropylmethyl)amino)cyclopropyl)-N-(1-methyl-1H-pyrazol-4-yl)benzamide dihydrochloride]	< 0.1 µM	> 10 µM	> 10 µM
O=C(Nc1cccc(C(F)(F)F)c1)c1ccc([C@@H]2C[C@H]2NC2CCS(=O)(=O)CC2)cc1 (relative stereo) [Example 62, 4-(trans-2-((1,1-dioxidotetrahydro-2H-thiopyran-4-yl)amino)cyclopropyl)-N-(3-(trifluoromethyl)phenyl)benzamide hydrochloride]	< 0.1 µM	> 10 µM	4.8 µM
CN(C(=O)c1cccc([C@@H]2C[C@H]2NCC2CC2)c1)c1ccccc1 (relative stereo) [Example 80, 3-(trans-2-((cyclopropylmethyl)amino)cyclopropyl)-N-methyl-N-phenylbenzamide hydrochloride]	< 0.1 µM	0.9 µM	> 10 µM
O=C(Nc1cccc(-c2ncccn2)c1)c1cccc([C@@H]2C[C@H]2NCC2CC2)c1 (relative stereo) [Example 81, 3-(trans-2-((cyclopropylmethyl)amino)cyclopropyl)-N-(3-(pyrimidin-2-yl)phenyl)benzamide dihydrochloride]	< 0.1 µM	5.2 µM	> 10 µM
O=C(NC1CCCC1)c1cccc([C@@H]2C[C@H]2NCC2CCOCC2)c1 (relative stereo) [Example 83, N-cyclopentyl-3-(trans-2-((tetrahydro-2H-pyran-4-ylmethyl)amino)cyclopropyl)benzamide hydrochloride]	< 0.1 µM	> 10 µM	> 10 µM
CCn1cc(NC(=O)c2cccc([C@@H]3C[C@H]3NCC3CCOCC3)c2)cn1 (relative stereo) [Example 86, N-(1-ethyl-1H-pyrazol-4-yl)-3-(trans-2-((tetrahydro-2H-pyran-4-ylmethyl)amino)cyclopropyl)benzamide dihydrochloride]	< 0.1 µM	> 10 µM	> 10 µM
CC(C)(C)n1cc(NC(=O)c2cccc([C@@H]3C[C@H]3NCC3CCOCC3)c2)cn1 (relative stereo) [Example 89, N-(1-tert-butyl-1H-pyrazol-4-yl)-3-(trans-2-((tetrahydro-2H-pyran-4-ylmethyl)amino)cyclopropyl)benzamide dihydrochloride]	< 0.1 µM	> 10 µM	> 10 µM
Cc1ncc(NC(=O)c2cccc([C@@H]3C[C@H]3NCC3CCOCC3)c2)s1 (relative stereo) [Example 90, N-(2-methyl-1,3-thiazol-5-yl)-3-(trans-2-((tetrahydro-2H-pyran-4-ylmethyl)amino)cyclopropyl)benzamide dihydrochloride]	< 0.1 µM	> 10 µM	> 10 µM
Cc1cc(NC(=O)c2cccc([C@@H]3C[C@H]3NCC3CCOCC3)c2)on1 (relative stereo) [Example 92, N-(3-methyl-1,2-oxazol-5-yl)-3-(trans-2-((tetrahydro-2H-pyran-4-ylmethyl)amino)cyclopropyl)benzamide hydrochloride]	< 0.1 µM	> 10 µM	> 10 µM
O=C(NCCc1ccccc1)c1cccc([C@@H]2C[C@H]2NCC2CC2)c1 (relative stereo) [Example 120, 3-(trans-2-((cyclopropylmethyl)amino)cyclopropyl)-N-(2-phenylethyl) benzamide trifluoroacetate]	< 0.1 µM	9.6 µM	> 10 µM
O=C(Nc1cccc(F)c1)c1cccc([C@@H]2C[C@H]2NCC2CC2)c1 (relative stereo) [Example 122, 3-(trans-2-((cyclopropylmethyl)amino)cyclopropyl)-N-(3-fluorophenyl) benzamide trifluoroacetate]	< 0.1 µM	> 10 µM	> 10 µM
O=C(Nc1ccc(OC(F)(F)F)cc1)c1cccc([C@@H]2C[C@H]2NCC2CC2)c1 (relative stereo) [Example 123, 3-(trans-2-((cyclopropylmethyl)amino)cyclopropyl)-N-(4-(trifluoromethoxy)phenyl)benzamide trifluoroacetate]	< 0.1 µM	> 10 µM	> 10 µM

— patent US9751885B2, “Cyclopropanamine compound and use thereof” (Takeda Pharmaceutical Company Limited, priority 2012, dated 2017)
